Experimental findings from patent publication US20220146526A1, “METHOD FOR EVALUATING SAMPLE, ANALYSIS METHOD, METHOD FOR DETECTING DEGRADED SAMPLE, MARKER FOR DETECTING DEGRADED BLOOD PLASMA SAMPLE, AND MARKER FOR DETECTING DEGRADED SERUM SAMPLE” (SHIMADZU CORPORATION, priority 2019, published 2022) are described below.

Assay type in all cases: physicochemical, human
Data set [1] can be described thus: GC/MS of serum sample: number of times of freezing and thawing (Table I). Particulars: for Rate of increase or decrease: detection intensity relative to 1 at 2 times. The arrangement: key to Rate of increase or decrease / Rate of increase or decrease (first value, increase): detection intensity relative to 2 freeze-thaw cycles = 1. The procedure, abridged: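 Detection intensities are ratios to the value after two freeze–thaw cycles, which is set as 1, compared against 4, 6 and 10 cycles. Analysis used methoxymation and trimethylsilylation derivatization, then GC/MS with EI ionization and multiple reaction monitoring on a BPX5 column. Serum came from blood held at room temperature and spun at 3500 rpm for 5 min.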

The nature of data set [2]: GC/MS of serum sample: time from centrifugation to isolation (Table H). The arrangement: key to Rate of increase or decrease / Rate of increase or decrease (first value, increase): detection intensity relative to 1 at 30 min centrifugation-to-isolation. Particulars: for Rate of increase or decrease: detection intensity relative to 1 at 30 minutes; for Increase or decrease: detection intensity. The procedure, abridged:
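Values are GC/MS (EI, MRM) detection intensities of methoxymated/trimethylsilylated serum, normalised to 1 for the 30-min sample. Serum was isolated 30 min, 1 h or 6 h after room-temperature centrifugation (3500 rpm, 5 min) of blood.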

A short description of data set [3]: GC/MS of serum sample: time from blood collection to centrifugation (Table G). Conditions: for Rate of increase or decrease: detection intensity relative to 1 at 15 minutes; for Rate of increase or decrease / Increase or decrease: blood collection to centrifugation; for Increase or decrease: detection intensity; for Rate of increase or decrease (second value, decrease) / Rate of increase or decrease (first value, increase): different from individual to individual, relative to 1 at 15 minutes, collection to centrifugation; for Rate of increase or decrease (second value, decrease): individuals with decrease; for Rate of increase or decrease (first value, increase): individuals with increase. The procedure, abridged:
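Values express detection intensity as a ratio to the sample centrifuged 15 minutes after blood collection (taken as 1). Serum was derivatized by methoxymation and trimethylsilylation, then analysed by electron-ionization GC/MS using multiple reaction monitoring on a BPX5 column ramped from 60 to 330° C.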

A short description of data set [4]: GC/MS of blood plasma sample: time from blood collection to centrifugation (Table A). Particulars: for Rate of increase or decrease: detection intensity relative to 1 at 15 minutes; for Rate of increase or decrease / Increase or decrease: blood collection to centrifugation; for Increase or decrease: detection intensity; for Rate of increase or decrease (second value, decrease) / Rate of increase or decrease (first value, increase): different from individual to individual, relative to 1 at 15 minutes, collection to centrifugation; for Rate of increase or decrease (second value, decrease): individuals with decrease; for Rate of increase or decrease (first value, increase): individuals with increase. The procedure, abridged:
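Read-out is MRM detection intensity by electron-ionization GC/MS on a BPX5 column after methoxymation and trimethylsilylation, expressed relative to a 15-minute collection-to-centrifugation interval. Plasma was prepared from EDTA blood held at 4° C and spun at 4° C, 3000 rpm for 15 minutes, then frozen.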

A short description of data set [5]: GC/MS of blood plasma sample: time from blood collection to cooling of blood (Table B). Also on record: key to Rate of increase or decrease / Rate of increase or decrease (first value, increase): detection intensity relative to 1 at cooling time ≤1 min. Particulars: for Rate of increase or decrease: detection intensity relative to 1 at 1 minute or less, blood collection to cooling 5 minutes; for Increase or decrease: detection intensity, blood collection to cooling 5 minutes or more vs 1 minute or less. The procedure, abridged: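 Blood drawn at room temperature into EDTA tubes, mixed, then cooled at 4° C. within 1 minute or less versus 5 minutes or more before centrifugation (4° C., 3000 rpm, 15 minutes). Plasma was frozen, methoxymated and trimethylsilylated, and analysed by EI GC/MS in MRM mode. Values are detection intensity relative to the ≤1 minute condition.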

Data set [6] in a line: GC/MS of blood plasma sample: number of times of freezing and thawing (Table C). Particulars: for Increase or decrease: detection intensity; for Rate of increase or decrease (second value, decrease) / Rate of increase or decrease (first value, increase): different from individual to individual, relative to 1 at 2 times; for Rate of increase or decrease (second value, decrease): individuals with decrease; for Rate of increase or decrease (first value, increase): individuals with increase; for Rate of increase or decrease: detection intensity relative to 1 at 2 times. The procedure, abridged:
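Values express detection intensity as a ratio to the 2-cycle freeze-thaw sample (=1), compared with 4, 6 and 10 cycles. Healthy-donor EDTA plasma, cooled at ≤1 min or ≥5 min, spun at 4 °C, 3000 rpm, 15 min. Derivatised by methoxymation/trimethylsilylation; GC-MS/MS in MRM mode with electron ionization.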

Setting [7] is: serum, GC/MS, freezing and thawing 4 times.
The mark [8] stands for this setting: detection intensity, serum, GC/MS, freezing and thawing 4 times vs 2 times.
[9] abbreviates: freezing and thawing 4 times vs 2 times.

For `O[C@@H]1[C@@H](O)[C@@H]2OC[C@@H](O2)[C@H]1O` [1,6-Anhydroglucose], the “Rate of increase or decrease” value in data set [1] (setting [7]) was determined as 2.25; in data set [2] (after 1 hour), 2.25; in data set [3] (after 8 hours), 0.62; in data set [4] (after 4 hours), 1.42; in data set [5], 0.62. For the same compound, the Increase or decrease entry is “Increase” in data set [1] (setting [8]); “Increase” in data set [2] (after 1 hour vs 30 minutes); “Decrease” in data set [3] (after 8 hours vs 15 minutes); “Increase” in data set [4] (after 4 hours vs 15 minutes); “Decrease” in data set [5]; “Different from individual” in data set [6] (setting [9]). For the same compound, in data set [6] (freezing and thawing 4 times), the “Rate of increase or decrease (second value, decrease)” value stood at 0.42. The “Rate of increase or decrease (first value, increase)” value in data set [6] (freezing and thawing 4 times) is 3.49.
On to `Oc1ccccn1` [2-Hydroxypyridine], for which the “Rate of increase or decrease” value in data set [1] (setting [7]) is 0.50; in data set [2] (after 1 hour) it was 1.44; in data set [3] (after 4 hours), 2.55; in data set [4] (after 4 hours), 0.57; in data set [5] it was 0.59. The Increase or decrease entry is reported as “Decrease” in data set [1] (setting [8]); “Increase” in data set [2] (after 1 hour vs 30 minutes); “Increase” in data set [3] (after 4 hours vs 15 minutes); “Decrease” in data set [4] (after 4 hours vs 15 minutes); “Decrease” in data set [5]; “Different from individual” in data set [6] (setting [9]). Besides, the “Rate of increase or decrease (second value, decrease)” value in data set [6] (freezing and thawing 4 times) is listed as 0.54. In addition, the “Rate of increase or decrease (first value, increase)” value in data set [6] (freezing and thawing 4 times) is listed as 2.48.
As for `N[C@@H](CS(=O)O)C(=O)O` [3-Sulfinoalanine], the “Rate of increase or decrease” value was determined as 0.47 in data set [1] (setting [7]), 3.07 in data set [2] (after 1 hour), 1.91 in data set [3] (after 4 hours) and 0.61 in data set [5]. Moreover, the Increase or decrease result is given as “Decrease” in data set [1] (setting [8]); “Increase” in data set [2] (after 1 hour vs 30 minutes); “Increase” in data set [3] (after 4 hours vs 15 minutes); “Different from individual” in data set [4] (after 4 hours vs 15 minutes); “Decrease” in data set [5]; “Different from individual” in data set [6] (setting [9]). Further, the “Rate of increase or decrease (second value, decrease)” value in data set [4] (after 4 hours) is 0.32; in data set [6] (freezing and thawing 4 times), 0.58. Also, the “Rate of increase or decrease (first value, increase)” value in data set [4] (after 4 hours) stood at 1.88; in data set [6] (freezing and thawing 4 times) it was 1.59.
With `O=C(O)CCCCCCCC(=O)O` [Azelaic acid], the “Rate of increase or decrease” value in data set [1] (10 times of freezing and thawing) stood at 9.39; in data set [2] (after 1 hour) it was 1.71; in data set [3] (after 4 hours), 0.51; in data set [4] (after 4 hours), 2.03; in data set [5], 0.67. Moreover, the “Number of times when compound is affected” value in data set [1] (serum sample, GC/MS, detection intensity changed by 30% or more vs 2 times of freezing and thawing) turned out to be 10 times. Also, the Increase or decrease entry in data set [1] (serum sample, GC/MS, detection intensity vs 2 times of freezing and thawing) was “Increase”; in data set [2] (after 1 hour vs 30 minutes) it was “Increase”; in data set [3] (after 4 hours vs 15 minutes), “Decrease”; in data set [4] (after 4 hours vs 15 minutes), “Increase”; in data set [5], “Decrease”; in data set [6] (setting [9]), “Different from individual”. In addition, the “Rate of increase or decrease (second value, decrease)” value in data set [6] (freezing and thawing 4 times) is 0.66. For the same compound, the “Rate of increase or decrease (first value, increase)” value in data set [6] (freezing and thawing 4 times) is recorded as 1.45.
As to `OC[C@@H](O)[C@@H](O[C@@H]1O[C@H](CO)[C@H](O)[C@H](O)[C@H]1O)[C@H](O)[C@@H](O)CO` [Lactitol], the “Rate of increase or decrease” value in data set [2] (after 1 hour) came out at 1.60; in data set [3] (after 4 hours), 3.20; in data set [5], 0.67; in data set [6] (freezing and thawing 10 times), 1.73. In addition, the Increase or decrease entry in data set [2] (after 1 hour vs 30 minutes) is recorded as “Increase”; in data set [3] (after 4 hours vs 15 minutes) it was “Increase”; in data set [4] (after 4 hours vs 15 minutes), “Different from individual”; in data set [5] it was “Decrease”; in data set [6] (freezing and thawing 10 times vs 2 times), “Increase”. In data set [4] (after 4 hours), the “Rate of increase or decrease (second value, decrease)” value is recorded as 0.22. The “Rate of increase or decrease (first value, increase)” value in data set [4] (after 4 hours) is on record as 3.36.
Consider `OC[C@H]1O[C@@H](O[C@H]2[C@H](O)[C@@H](O)C(O)O[C@@H]2CO)[C@H](O)[C@@H](O)[C@H]1O` (some centres unmarked) [Lactose], for which the “Rate of increase or decrease” value in data set [1] (setting [7]) is 1.60; in data set [1] (serum, GC/MS, freezing and thawing 6 times), 1.33; in data set [2] (after 1 hour), 2.37; in data set [2] (after 6 hours) it was 1.43; in data set [4] (after 12 hours) it was 0.70; in data set [5], 0.56. Further, the “Rate of increase or decrease” value in data set [6] (freezing and thawing 4 times) was determined as 1.40. Also, the Increase or decrease entry in data set [1] (setting [8]) was “Increase”; in data set [1] (detection intensity, serum, GC/MS, freezing and thawing 6 times vs 2 times) it was “Increase”; in data set [2] (after 1 hour vs 30 minutes), “Increase”; in data set [2] (after 6 hours vs 30 minutes) it was “Increase”; in data set [3] (after 4 hours vs 15 minutes), “Different from individual”; in data set [3] (after 8 hours vs 15 minutes), “Different from individual”. The results for the Increase or decrease entry in data set [4] (after 12 hours vs 15 minutes), in data set [5] and in data set [6] (setting [9]) were “Decrease”, “Decrease” and “Increase”, respectively. Moreover, the “Rate of increase or decrease (second value, decrease)” value in data set [3] (after 4 hours) is 0.62; in data set [3] (after 8 hours) it was 0.65. Also, the “Rate of increase or decrease (first value, increase)” value worked out at 1.31 in data set [3] (after 4 hours) and 3.99 in data set [3] (after 8 hours).
Turning to `CC(=O)N[C@@H](CO)C(=O)O` [N-acetylserine], the “Rate of increase or decrease” value in data set [2] (after 1 hour) worked out at 1.69; in data set [3] (after 12 hours) it was 1.44. The Increase or decrease result in data set [2] (after 1 hour vs 30 minutes) is recorded as “Increase”; in data set [3] (after 12 hours vs 15 minutes) it was “Increase”; in data set [4] (after 4 hours vs 15 minutes), “Different from individual”; in data set [5], “Different from individual”; in data set [6] (freezing and thawing 6 times vs 2 times) it was “Different from individual”. The “Rate of increase or decrease (second value, decrease)” value in data set [4] (after 4 hours) is reported as 0.66; in data set [5] (different from individual to individual, individuals with decrease, relative to 1 at 1 minute or less, collection to cooling 5 minutes) it was 0.69; in data set [6] (freezing and thawing 6 times), 0.69. The “Rate of increase or decrease (first value, increase)” value in data set [4] (after 4 hours) worked out at 1.69; in data set [5] (different from individual to individual, individuals with increase, relative to 1 at 1 minute or less, collection to cooling 5 minutes) it was 1.64; in data set [6] (freezing and thawing 6 times), 1.39.
